Values quoted from earlier work, collected in patent publication US12201732B2, “Transdermal patches for hangover minimization and/or recocery, and/or sleep improvement” (GameChanger Patch Co., priority 2020, dated 2025).

Experiments:
[1] = recent study
[2] = oral supplementation

share metabolized by the human stomach in the first pass [2]	Structure (SMILES)	effect on hangover [1]
–	N[C@@H](CS)C(=O)O [L-cysteine]	mitigate hangover effects
≥ 90%	N[C@@H](CCC(=O)N[C@@H](CS)C(=O)NCC(=O)O)C(=O)O [glutathione]	–
